Results reported in patent publication US20060008491A1, “Eremophilone and eremophilone derivatives for pest control” (priority 2002, published 2006).

System: Coptotermes acinaciformis
Type: in vivo
Details: HPLC fractions of steam distilled oil
Procedure: A number of samples were assessed for termiticidal activity. The steam distilled oil product was separated into thirty fractions using reverse phase preparative HPLC, methanol:water (80:20). Fractions were re-analysed by GC-MS and recombined to provide eight fractions. Three fractions contained pure components, the other fractions contained mixtures of minor components of the oil. Six fractions together with the whole oil distillate, and the methanol and hexane extracts were tested on the workers of the termites Nasutitermes walkeri and Coptotermes acinaciformis as follows.
Twenty uniform termite workers were transferred to 90 mm diam. petri dishes lined with the same diameter moistened filter paper (Whatman No 2). […]
A 5 ml aliquot was applied to each petri dish with a Potter precision spray tower as described by Herron et al (995). The average weight of the solution sprayed on each dish was calculated to be 3.95 mg/cm^2. […] Mortality was normally recorded 24 h after treatment. […] Probit analysis was carried out for dose-mortality data and heterogeneity of regressions was determined by the Pearson chi-squared characteristic.

C=C(C)[C@@H]1CC(=O)C2=CCC[C@H](C)[C@@]2(C)C1 [EM-1, Eremophilone]
termiticidal activity: significant termiticidal activity
